This is an account of results in patent US9067898B1, “Isothiazole derivatives as GPR120 agonists for the treatment of type II diabetes” (Janssen Pharmaceutica NV, priority 2014, dated 2015).

One experiment deals with T1, Human GPR120 short form (Homo sapiens, UniProt Q5NUL3).
T1 construct: expressed in transfected cells
T1 sequence (Q5NUL3 1-361): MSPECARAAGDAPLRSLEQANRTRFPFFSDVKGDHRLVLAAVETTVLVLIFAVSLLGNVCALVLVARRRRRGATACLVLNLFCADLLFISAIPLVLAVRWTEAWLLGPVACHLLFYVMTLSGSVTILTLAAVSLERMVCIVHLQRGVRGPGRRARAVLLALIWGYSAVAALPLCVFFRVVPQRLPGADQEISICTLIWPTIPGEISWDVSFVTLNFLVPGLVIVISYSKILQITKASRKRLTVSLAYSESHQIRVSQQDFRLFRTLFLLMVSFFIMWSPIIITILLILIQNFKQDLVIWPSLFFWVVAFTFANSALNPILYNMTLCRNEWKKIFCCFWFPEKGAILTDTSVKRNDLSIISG
Description: Human GPR120 calcium flux assay (FLIPR), Procedure Calcium A. The following applies: HEK-293 cells expressing human GPR120 short form, 2500 cells/well; read-out: GPR120 Ca2+ Assay A EC50. In kind it is cell-based. In outline:
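HEK293 cells stably expressing the short isoform (NM_001195755.1), 2500/well, starved 1 h, then loaded with Fluo-4 NW plus probenecid (30 min 37 °C, 15 min RT). Compound solutions 0.012–100 μM, 0.2% DMSO final; FLIPR read 300 s after addition. EC50 from Fmax−Fmin fitted to variable-slope sigmoid (Hill <2).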
Background: Calcium flux is commonly read through the fluorescence of an indicator in the cells.

The target in experiment [1] is T2, long form of human GPR120 (Homo sapiens, UniProt Q5NUL3).
T2 construct: host or cells: PathHunter CHO-K1 GPR120 β-Arrestin Cell Line
Description: Human GPR120 DiscoveRx PathHunter Beta-Arrestin assay, Procedure β-arrestin A. The experiment is classed as cell-based. Particulars: PathHunter CHO-K1 GPR120 β-Arrestin cell line, 3000 cells per well, read-out: hGPR120 β-arrestin A EC50. A digest of the protocol: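 PathHunter CHO-K1 β-arrestin cells expressed long-form GPR120 (Procedure A, 3000 cells/well) or short-form GPR120 (Procedure B, 5000 cells/well). Compounds were serially diluted from 25 µM and incubated 90 min at 37 °C in HBSS/20 mM HEPES/0.1% BSA, pH 7.4. Luminescence was read after 60 min detection at RT; EC50 comes from % activity versus positive control, Hill slope fixed at 1.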

T2 sequence (Q5NUL3 1-377 isoform Q5NUL3-1): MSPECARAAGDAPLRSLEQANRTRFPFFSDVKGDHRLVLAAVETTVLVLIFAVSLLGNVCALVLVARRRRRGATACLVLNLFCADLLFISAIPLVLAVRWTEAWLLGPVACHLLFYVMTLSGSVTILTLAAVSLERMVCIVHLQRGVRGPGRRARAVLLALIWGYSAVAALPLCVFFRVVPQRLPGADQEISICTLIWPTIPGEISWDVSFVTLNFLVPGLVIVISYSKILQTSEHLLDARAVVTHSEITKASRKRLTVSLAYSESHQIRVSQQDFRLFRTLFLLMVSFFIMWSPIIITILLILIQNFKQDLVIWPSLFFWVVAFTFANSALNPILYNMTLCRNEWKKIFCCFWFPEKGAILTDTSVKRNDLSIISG
T2 sequence (P32121 whole entry partner): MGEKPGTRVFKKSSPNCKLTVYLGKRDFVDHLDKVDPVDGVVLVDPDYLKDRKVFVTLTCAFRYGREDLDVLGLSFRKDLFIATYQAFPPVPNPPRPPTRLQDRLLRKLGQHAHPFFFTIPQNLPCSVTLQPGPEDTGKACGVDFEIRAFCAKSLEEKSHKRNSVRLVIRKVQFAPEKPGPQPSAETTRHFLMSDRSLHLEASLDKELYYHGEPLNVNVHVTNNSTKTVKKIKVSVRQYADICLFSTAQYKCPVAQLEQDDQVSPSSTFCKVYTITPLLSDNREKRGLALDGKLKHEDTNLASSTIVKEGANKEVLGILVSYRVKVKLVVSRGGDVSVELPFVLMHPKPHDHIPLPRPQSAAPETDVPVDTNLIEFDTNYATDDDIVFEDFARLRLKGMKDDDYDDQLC

What is called EC50 is the midpoint of the concentration-response curve. As for `CCc1ccc(-c2snc(Cl)c2COc2c(F)cc(CCCO)c(F)c2F)cc1` [Cpd 140, 3-(4-((3-chloro-5-(4-ethylphenyl)isothiazol-4-yl)methoxy)-2,3,5-trifluorophenyl)propan-1-ol], the EC50 on Human GPR120 short form was 139 nM; in experiment [1] it was 67 nM.

`OCCCc1cc(F)c(OCc2c(C3CCCC3)nsc2C(F)(F)F)c(F)c1` [Cpd 141, 3-(4-[[3-cyclopentyl-5-(trifluoromethyl)-1,2-thiazol-4-yl]methoxy]-3,5-difluorophenyl)propan-1-ol]: the figures for the EC50 (at Human GPR120 short form; in experiment [1]) were 148 nM and 105 nM, respectively.

On to `Cc1cc(OCc2c(-c3ccc(Cl)c(F)c3)nsc2C(F)(F)F)c(F)cc1CCC(=O)O` [Cpd 148, 3-(4-((3-(4-chloro-3-fluorophenyl)-5-(trifluoromethyl)isothiazol-4-yl)methoxy)-5-fluoro-2-methylphenyl)propanoic acid], for which the values for the EC50 (at Human GPR120 short form; in experiment [1]) were 165 nM and 242 nM, respectively.

Take `CCc1nsc(-c2ccc(C)cc2F)c1COc1c(F)cc(CCC(=O)O)cc1F` [Cpd 150, 3-(4-[[3-ethyl-5-(2-fluoro-4-methylphenyl)-1,2-thiazol-4-yl]methoxy]-3,5-difluorophenyl)propanoic acid]: the EC50 worked out at 167 nM on Human GPR120 short form and 240 nM in experiment [1].

On to `Cc1c(CCC(=O)O)ccc(OCc2c(Cl)nsc2-c2ccc(F)cc2)c1C` [Cpd 154, 3-(4-[[3-chloro-5-(4-fluorophenyl)-1,2-thiazol-4-yl]methoxy]-2,3-dimethylphenyl)propanoic acid], for which the EC50 at Human GPR120 short form was determined as 178 nM; in experiment [1], 431 nM.

With `Cc1c(CCC(=O)O)ccc(OCc2c(Cl)nsc2-c2cccc(Cl)c2)c1C` [Cpd 156, 3-(4-[[3-chloro-5-(3-chlorophenyl)-1,2-thiazol-4-yl]methoxy]-2,3-dimethylphenyl)propanoic acid], the EC50 on Human GPR120 short form was found to be 185 nM; in experiment [1], 368 nM.

Turning to `Cc1c(CCC(=O)O)ccc(OCc2csnc2-c2ccc(Cl)cc2)c1C` [Cpd 166, 3-(4-((3-(4-chlorophenyl)isothiazol-4-yl)methoxy)-2,3-dimethylphenyl)propanoic acid], the EC50 on Human GPR120 short form came to 217 nM; in experiment [1], 1340 nM.

Take `COc1ccc(-c2snc(Cl)c2COc2ccc(CCCO)c(F)c2F)cc1` [Cpd 168, 3-(4-[[3-chloro-5-(4-methoxyphenyl)-1,2-thiazol-4-yl]methoxy]-2,3-difluorophenyl)propan-1-ol]: the figures for the EC50 (at Human GPR120 short form; in experiment [1]) were 223 nM and 325 nM, respectively.

Take `O=C(O)CCc1cc(F)c(OCc2csnc2-c2ccc(Br)cc2)c(F)c1` [Cpd 169, 3-(4-((3-(4-bromophenyl)isothiazol-4-yl)methoxy)-3,5-difluorophenyl)propanoic acid]: the figures for the EC50 (on Human GPR120 short form; in experiment [1]) were 225 nM and 486 nM, respectively.

For the molecule `Cc1c(CCC(=O)O)ccc(OCc2csnc2-c2ccc(Br)cc2)c1C` [Cpd 170, 3-(4-((3-(4-bromophenyl)isothiazol-4-yl)methoxy)-2,3-dimethylphenyl)propanoic acid], the EC50 on Human GPR120 short form was 225 nM; in experiment [1], 813 nM.

For `O=C(O)CCc1cc(F)c(OCc2csnc2-c2ccc(Cl)cc2)c(F)c1` [Cpd 179, 3-(4-((3-(4-chlorophenyl)isothiazol-4-yl)methoxy)-3,5-difluorophenyl)propanoic acid], the EC50 on Human GPR120 short form was found to be 268 nM; in experiment [1], 490 nM.

Regarding `CCc1ccc(-c2snc(Cl)c2COc2c(F)cc(CCCO)cc2F)cc1` [Cpd 183, 3-(4-[[3-chloro-5-(4-ethylphenyl)-1,2-thiazol-4-yl]methoxy]-3,5-difluorophenyl)propan-1-ol], the results for the EC50 (on Human GPR120 short form; in experiment [1]) were 300 nM and 52 nM, respectively.

Turning to `O=C(O)/C=C/c1ccc(OCc2c(Cl)nsc2-c2ccc(Cl)cc2)c(F)c1F` [Cpd 185, (E)-3-(4-((3-chloro-5-(4-chlorophenyl)isothiazol-4-yl)methoxy)-2,3-difluorophenyl)acrylic acid], the EC50 on Human GPR120 short form worked out at 301 nM; in experiment [1], 324 nM.

Consider `O=C(O)CCc1ccc(OCc2csnc2-c2ccc(Br)cc2)c(F)c1F` [Cpd 187, 3-(4-((3-(4-bromophenyl)isothiazol-4-yl)methoxy)-2,3-difluorophenyl)propanoic acid], for which the concentration giving a half-maximal response (EC50) came to 305 nM on Human GPR120 short form and 889 nM in experiment [1].

As to `O=C(O)CCc1ccc(OCc2csnc2-c2ccc(Cl)cc2)c(F)c1F` [Cpd 189, 3-(4-((3-(4-chlorophenyl)isothiazol-4-yl)methoxy)-2,3-difluorophenyl)propanoic acid], the EC50 at Human GPR120 short form amounted to 310 nM; in experiment [1], 612 nM.

On to `Cc1c(CCC(=O)O)ccc(OCc2c(-c3ccc(C4CC4)cc3)nsc2C(F)(F)F)c1C` [Cpd 190, 3-(4-((3-(4-cyclopropylphenyl)-5-(trifluoromethyl)isothiazol-4-yl)methoxy)-2,3-dimethylphenyl)propanoic acid], for which the EC50 turned out to be 314 nM on Human GPR120 short form and 379 nM in experiment [1].

As to `O=C(O)/C=C/c1cc(F)c(OCc2c(-c3ccc(Cl)cc3)nsc2C(F)(F)F)c(F)c1` [Cpd 201, (E)-3-(4-((3-(4-chlorophenyl)-5-(trifluoromethyl)isothiazol-4-yl)methoxy)-3,5-difluorophenyl)acrylic acid], the 50% effective concentration (EC50) on Human GPR120 short form worked out at 453 nM; in experiment [1], 341 nM.

With `Cc1cc(OCc2c(-c3ncc(Cl)cc3F)nsc2C(F)(F)F)c(F)cc1CCC(=O)O` [Cpd 206, 3-(4-((3-(5-chloro-3-fluoropyridin-2-yl)-5-(trifluoromethyl)isothiazol-4-yl)methoxy)-5-fluoro-2-methylphenyl)propanoic acid], the 50% effective concentration (EC50) was 551 nM on Human GPR120 short form and 540 nM in experiment [1].

Take `CCc1ccc(-c2snc(Cl)c2COc2ccc(CCCO)c(C)c2C)cc1` [Cpd 209, 3-(4-((3-chloro-5-(4-ethylphenyl)isothiazol-4-yl)methoxy)-2,3-dimethylphenyl)propan-1-ol]: the values for the EC50 (at Human GPR120 short form; in experiment [1]) were 579 nM and 229 nM, respectively.

Take `CCc1ccc(-c2nsc(C(F)(F)F)c2COc2c(F)cc(CC(C)CO)cc2F)cc1` (stereo not drawn) [Cpd 216, 3-(4-[[3-(4-ethylphenyl)-5-(trifluoromethyl)-1,2-thiazol-4-yl]methoxy]-3,5-difluorophenyl)-2-methylpropan-1-ol]: the values for the EC50 (on Human GPR120 short form; in experiment [1]) were 674 nM and 466 nM, respectively.

Turning to `Cc1c(CCCO)cc(F)c(OCc2c(-c3ccc(Cl)cc3)nsc2C(F)(F)F)c1F` [Cpd 223, 3-(4-((3-(4-chlorophenyl)-5-(trifluoromethyl)isothiazol-4-yl)methoxy)-3,5-difluoro-2-methylphenyl)propan-1-ol], the values for the EC50 (at Human GPR120 short form; in experiment [1]) were 770 nM and 182 nM, respectively.

Turning to `CC(CO)Cc1cc(F)c(OCc2c(-c3ccc(Cl)cc3)nsc2C(F)(F)F)c(F)c1` (stereo not drawn) [Cpd 230, 3-(4-[[3-(4-chlorophenyl)-5-(trifluoromethyl)-1,2-thiazol-4-yl]methoxy]-3,5-difluorophenyl)-2-methylpropan-1-ol], the results for the EC50 (on Human GPR120 short form; in experiment [1]) were 1020 nM and 474 nM, respectively.

On to `Cc1c(CCC(=O)O)cc(F)c(OCc2csnc2-c2ccc(Cl)cc2)c1F` [Cpd 231, 3-(4-((3-(4-chlorophenyl)isothiazol-4-yl)methoxy)-3,5-difluoro-2-methylphenyl)propanoic acid], for which the EC50 stood at 1020 nM on Human GPR120 short form and 961 nM in experiment [1].

Turning to `CCc1ccc(-c2nsc(C(F)(F)F)c2COc2c(F)cc(CCCO)c(F)c2F)cc1` [Cpd 238, 3-(4-((3-(4-ethylphenyl)-5-(trifluoromethyl)isothiazol-4-yl)methoxy)-2,3,5-trifluorophenyl)propan-1-ol], the EC50 at Human GPR120 short form was found to be 521 nM; in experiment [1] it was 90 nM.
